According to PubChem BioAssay AID1259411 (Chemical Carcinogenesis Research Information System (CCRIS), 2018):
The source made the active and inactive calls. No rule for the calls is given here.

Test system: rodent carcinogenicity bioassays, tumor incidence
Assay: CCRIS carcinogenicity studies
Method in brief: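 NCI-built, expert-reviewed records of carcinogenicity and related test outcomes (mutagenicity, tumor promotion/inhibition) compiled from published and report sources, historical span 1985-2011, not updated.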

Measured: carcinogen call

CC(=O)CN(CC(C)=O)N=O
active: Species: GUINEA PIG, Strain/Sex: STRAIN-13/MALE, Route: SUBCUTANEOUS, Dose: 70 MG/KG/WK FOR 2 WK FOLLOWED BY 1 WK NO TREATMENT THEN 20 MG/KG/WK FOR 2 WK, Tumor Site: Type of Lesion: LIVER: CHOLANGIOMA, CHOLANGIOCARCINOMA active; positive | Species: HAMSTER, Strain/Sex: SYRIAN/FEMALE, Route: SUBCUTANEOUS, Dose: 2.5, 5, 10 MG/KG, Dose: 2.5, 5, 10 MG/KG, Tumor Site: Type of Lesion: PANCREAS: DUCTAL ADENOMA, INTRADUCTAL CARCINOMA, ADENOCARCINOMA, LUNG: ADENOMA, ADENOCARCINOMA, SQUAMOUS CELL CARCINOMA;, Tumor Site: Type of Lesion: PANCREAS: DUCTAL ADENOMA, INTRADUCTAL CARCINOMA, ADENOCARCINOMA, LUNG: ADENOMA, ADENOCARCINOMA, SQUAMOUS CELL CARCINOMA active; positive | Species: HAMSTER, Strain/Sex: SYRIAN/MALE,FEMALE, Route: ORAL, Dose: 0.35, 0.7, 1.4% IN DRINKING WATER, Dose: 0.35, 0.7, 1.4% IN DRINKING WATER, Tumor Site: Type of Lesion: LIVER: CHOLANGIOMA, INTRADUCTAL CARCINOMA, CHOLANGIOCARCINOMA, GALL BLADDER: POLYP, COMMON BILE DUCT: POLYP, COMMON DUCT, Tumor Site: Type of Lesion: LIVER: CHOLANGIOMA, INTRADUCTAL CARCINOMA, CHOLANGIOCARCINOMA, GALL BLADDER: POLYP, COMMON BILE DUCT: POLYP, COMMON DUCT active; positive | Species: HAMSTER, Strain/Sex: SYRIAN/MALE, Route: SUBCUTANEOUS, Dose: 2.5, 5, 10 MG/KG, Dose: 2.5, 5, 10 MG/KG, Tumor Site: Type of Lesion: PANCREAS: DUCTAL ADENOMA, INTRADUCTAL CARCINOMA, ADENOCARCINOMA, LUNG: ADENOMA, ADENOCARCINOMA, GALL BLADDER: PAPILLARY, Tumor Site: Type of Lesion: PANCREAS: DUCTAL ADENOMA, INTRADUCTAL CARCINOMA, ADENOCARCINOMA, LUNG: ADENOMA, ADENOCARCINOMA, GALL BLADDER: PAPILLARY active; positive | Species: MOUSE, Strain/Sex: ICR/FEMALE, Route: SUBCUTANEOUS, Dose: 0, 10, 20, 40 MG/KG BW IN 1% GELATIN SOLUTION ON DAYS 1, 8, 15 AND 22 OF AGE (STUDY DURATION: 1 YR), Dose: 0, 10, 20, 40 MG/KG BW IN 1% GELATIN SOLUTION ON DAYS 1, 8, 15 AND 22 OF AGE (STUDY DURATION: 1 YR), Tumor Site: Type of Lesion: NASAL CAVITY: TUMOR, LUNG: TUMOR, LIVER: TUMOR, Tumor Site: Type of Lesion: NASAL CAVITY: TUMOR, LUNG: TUMOR, LIVER: TUMOR active; positive | Species: MOUSE, Strain/Sex: ICR/MALE, Route: SUBCUTANEOUS, Dose: 0, 10, 20, 40 MG/KG BW IN 1% GELATIN SOLUTION ON DAYS 1, 8, 15 AND 22 OF AGE (STUDY DURATION: 1 YR), Dose: 0, 10, 20, 40 MG/KG BW IN 1% GELATIN SOLUTION ON DAYS 1, 8, 15 AND 22 OF AGE (STUDY DURATION: 1 YR), Tumor Site: Type of Lesion: NASAL CAVITY: TUMOR, LUNG: TUMOR, LIVER: TUMOR, Tumor Site: Type of Lesion: NASAL CAVITY: TUMOR, LUNG: TUMOR, LIVER: TUMOR active; positive | Species: RAT, Strain/Sex: CD-1/FEMALE, Route: SUBCUTANEOUS, Dose: 0, 5.35, 10.7, 21.4 MG/KG 1/WK FOR LIFE (STUDY DURATION: LIFE), Dose: 0, 5.35, 10.7, 21.4 MG/KG 1/WK FOR LIFE (STUDY DURATION: LIFE), Tumor Site: Type of Lesion: NASAL CAVITY: TUMOR active; positive | Species: RAT, Strain/Sex: CD-1/MALE, Route: SUBCUTANEOUS, Dose: 0, 6.15, 12.3, 24.6 MG/KG 1/WK FOR LIFE (STUDY DURATION: LIFE), Dose: 0, 6.15, 12.3, 24.6 MG/KG 1/WK FOR LIFE (STUDY DURATION: LIFE), Tumor Site: Type of Lesion: NASAL CAVITY: TUMOR active; positive | Species: RAT, Strain/Sex: F344/FEMALE, Route: INTRAVESICULAR, Dose: 0, 0.8 MG IN 0.2 ML ETHANOL: DEIONIZED WATER (1:3) 2/WK FOR 30 WK (TOTAL DOSE 0.3 MMOL) (STUDY DURATION: LIFESPAN), Tumor Site: Type of Lesion: BLADDER: TRANSITIONAL CELL CARCINOMA, TRANSITIONAL CELL PAPILLOMA, LUNG: TUMOR, KIDNEY: MESENCHYMAL NEOPLASM, LIVER: TUM, Tumor Site: Type of Lesion: BLADDER: TRANSITIONAL CELL CARCINOMA, TRANSITIONAL CELL PAPILLOMA, LUNG: TUMOR, KIDNEY: MESENCHYMAL NEOPLASM, LIVER: TUM active; positive | Species: RAT, Strain/Sex: F344/FEMALE, Route: ORAL, Dose: 0, 55 MG/L DRINKING WATER 5 D/WK FOR 50 WK (TOTAL DOSE 275 MG) (STUDY DURATION: LIFESPAN), Tumor Site: Type of Lesion: LIVER: CARCINOMA, ANGIOSARCOMA, LUNG: TUMOR active; positive | Species: RAT, Strain/Sex: F344/FEMALE, Route: SUBCUTANEOUS, Dose: 0, 10 MG/KG/BW 2/WK FOR A TOTAL OF 11 DOSES BEGINNING AT 2 D OF AGE (STUDY DURATION: 26 WK), Tumor Site: Type of Lesion: LIVER: HEPATOCELLULAR CARCINOMA, KIDNEY: NEPHROBLASTOMA active; positive | Species: RAT, Strain/Sex: F344/MALE, Route: SUBCUTANEOUS, Dose: 0, 10 MG/KG/BW 2/WK FOR A TOTAL OF 11 DOSES BEGINNING AT 2 D OF AGE (STUDY DURATION: 26 WK), Tumor Site: Type of Lesion: LIVER: HEPATOCELLULAR CARCINOMA, KIDNEY: NEPHROBLASTOMA, TESTIS: GONADAL STROMAL TUMOR, Tumor Site: Type of Lesion: LIVER: HEPATOCELLULAR CARCINOMA, KIDNEY: NEPHROBLASTOMA, TESTIS: GONADAL STROMAL TUMOR active; positive | Species: RAT, Strain/Sex: MRC/MALE,FEMALE, Route: SUBCUTANEOUS, Dose: 2.5, 5, 10 MG/KG, Dose: 2.5, 5, 10 MG/KG, Tumor Site: Type of Lesion: THYROID GLAND: FOLLICULAR ADENOMA, CARCINOMA active; positive | Species: RAT, Strain/Sex: SPRAGUE-DAWLEY/FEMALE, Route: SUBCUTANEOUS, Dose: 0, 5.35, 10.7, 21.4 MG/KG BW IN 0.9% SALINE 1/WK FOR DURATION OF STUDY (STUDY DURATION: 96 WK), Dose: 0, 5.35, 10.7, 21.4 MG/KG BW IN 0.9% SALINE 1/WK FOR DURATION OF STUDY (STUDY DURATION: 96 WK), Tumor Site: Type of Lesion: KIDNEY (RENAL PELVIS): TUMOR, URETER: TUMOR, URINARY BLADDER: TUMOR, Tumor Site: Type of Lesion: KIDNEY (RENAL PELVIS): TUMOR, URETER: TUMOR, URINARY BLADDER: TUMOR active; positive | Species: RAT, Strain/Sex: SPRAGUE-DAWLEY/MALE, Route: SUBCUTANEOUS, Dose: 0, 6.15, 12.3, 24.6 MG/KG BW IN 0.9% SALINE 1/WK FOR DURATION OF STUDY (STUDY DURATION: 96 WK), Dose: 0, 6.15, 12.3, 24.6 MG/KG BW IN 0.9% SALINE 1/WK FOR DURATION OF STUDY (STUDY DURATION: 96 WK), Tumor Site: Type of Lesion: KIDNEY (RENAL PELVIS): TUMOR, URINARY BLADDER: TUMOR active; positive

O[C@@H]1C=Cc2c(ccc3cc4ccc5ccccc5c4nc23)[C@H]1O
active: Species: MOUSE, Strain/Sex: CD-1/FEMALE, Route: INTRAPERITONEAL, Dose: 0, 175 NMOL (TOTAL DOSE) ADMINISTERED AS 1/7 OF DOSE WITHIN 24 HR AFTER BIRTH, 2/7 OF DOSE AT 8 D OLD, 4/7 OF DOSE AT 15, Tumor Site: Type of Lesion: LUNG: TUMOR active; positive | Species: MOUSE, Strain/Sex: CD-1/MALE, Route: INTRAPERITONEAL, Dose: 0, 175 NMOL (TOTAL DOSE) ADMINISTERED AS 1/7 OF DOSE WITHIN 24 HR AFTER BIRTH, 2/7 OF DOSE AT 8 D OLD, 4/7 OF DOSE AT 15, Tumor Site: Type of Lesion: LIVER: TUMOR, LUNG: TUMOR active; positive

Nc1ccc(N=Nc2ccc(-c3ccc(N=Nc4c(S(=O)(=O)O)cc5c(c4N)C(=O)/C(=N/Nc4ccccc4)C(S(=O)(=O)O)=C5)cc3)cc2)c(N)c1
active: Species: MOUSE, Strain/Sex: ICR/MALE,FEMALE, Route: ORAL, Dose: 0, 0.3% IN DRINKING WATER FOR LIFE (STUDY DURATION: 50-60 WK), Tumor Site: Type of Lesion: LIVER: HEPATOCELLULAR CARCINOMA, MAMMARY GLAND: ADENOCARCINOMA OR SQUAMOUS CELL CARCINOMA active; positive | Species: RAT, Strain/Sex: F344/FEMALE, Route: ORAL, Dose: 0, 190, 375, 750, 1500, 3000 PPM IN DIET FOR 91 D (STUDY DURATION:93 D), Dose: 0, 190, 375, 750, 1500, 3000 PPM IN DIET FOR 91 D (STUDY DURATION:93 D), Tumor Site: Type of Lesion: LIVER: NEOPLASTIC NODULE, FOCI OF CELLULAR ALTERATION OR BASOPHILIC FOCI active; positive | Species: RAT, Strain/Sex: F344/MALE, Route: ORAL, Dose: 0, 190, 375, 750, 1500, 3000 PPM IN DIET FOR 91 D (STUDY DURATION: 93 D), Dose: 0, 190, 375, 750, 1500, 3000 PPM IN DIET FOR 91 D (STUDY DURATION: 93 D), Tumor Site: Type of Lesion: LIVER: HEPATOCELLULAR CARCINOMA OR NEOPLASTIC NODULE, FOCI OF CELLULAR ALTERATION OR BASOPHILIC FOCI active; positive
